Assay results reported in US9695155B2, “Herbicidal substituted pyrimidinyloxy benzene compounds” (E. I. DU PONT DE NEMOURS AND COMPANY, priority 2013, dated 2017).

How the values were obtained:
oilseed rape = test: Test C postemergence; type: in vivo, Brassica napus; details: for Plant response rating, Oilseed Rape / Oilseed Rape plant response rating: scale 0 to 100 (0 no effect, 100 complete control)
Method in brief: (§1)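 Injury was assessed visually against controls 13 to 15 days after application, with 0 meaning no effect and 100 full control; missing entries are shown as a dash. Preemergence sprays hit seeded loam–sand soil, postemergence sprays hit 1- to 4-leaf plants.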

pigweed [1] = test: Test A preemergence; type: in vivo, Amaranthus retroflexus; details: for Pigweed plant response rating: 500 g ai/ha
Method in brief: (§2)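 Visual 0–100 rating (100 = complete control) taken about 10 d post-treatment relative to untreated checks. Preemergence: directed soil spray on sown loam/sand pots. Postemergence: seedlings 2–10 cm, 1–2 leaf. Non-phytotoxic solvent formulation with surfactant.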

morningglory = test: Test A postemergence; type: in vivo, Ipomoea spp.; details: 0 to 100 scale where 0 is no effect and 100 is complete control
Method in brief: as §2

pigweed [2] = test: Test A postemergence; type: in vivo, Amaranthus retroflexus; details: 0 to 100 scale where 0 is no effect and 100 is complete control
Method in brief: as §2

barnyardgrass [3] = test: Test B flooded paddy test; type: in vivo, Echinochloa crus-galli; details: Flood, 250 g ai/ha; 0 to 100 scale where 0 is no effect and 100 is complete control
Method in brief: (§3)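 Scores from 0 (no effect) to 100 (complete control) are visual comparisons with controls, taken 13 to 15 days after compound was applied into floodwater 3 cm deep around 2-leaf plants.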

johnsongrass = test: Test C postemergence; type: in vivo, Sorghum halepense; details: for Plant response rating, Johnsongrass / Johnsongrass plant response rating: scale 0 to 100 (0 no effect, 100 complete control)
Method in brief: as §1

barnyardgrass [4] = test: Test C postemergence; type: in vivo, Echinochloa crus-galli; details: for Plant response rating, Barnyardgrass / Barnyardgrass plant response rating: scale 0 to 100 (0 no effect, 100 complete control)
Method in brief: as §1

chickweed = test: Test C postemergence; type: in vivo, Stellaria media; details: for Plant response rating, Chickweed / Chickweed plant response rating: scale 0 to 100 (0 no effect, 100 complete control)
Method in brief: as §1

Heteranthera limosa = test: Test B flooded paddy test; type: in vivo; details: Flood, 250 g ai/ha; 0 to 100 scale where 0 is no effect and 100 is complete control
Method in brief: as §3

waterhemp = test: Test C postemergence; type: in vivo, Amaranthus rudis; details: for Plant response rating, Waterhemp / Waterhemp plant response rating: scale 0 to 100 (0 no effect, 100 complete control)
Method in brief: as §1

velvetleaf = test: Test A preemergence; type: in vivo, Abutilon theophrasti; details: for Velvetleaf plant response rating: 500 g ai/ha
Method in brief: as §2

wheat, winter = test: Test C postemergence; type: in vivo, Triticum aestivum; details: for Plant response rating, Wheat / Wheat plant response rating: scale 0 to 100 (0 no effect, 100 complete control)
Method in brief: as §1

large (Lg) crabgrass = test: Test C postemergence; type: in vivo, Digitaria sanguinalis; details: for Plant response rating, Crabgrass, Large / Crabgrass, Large plant response rating: scale 0 to 100 (0 no effect, 100 complete control)
Method in brief: as §1

sedge, umbrella = test: Test B flooded paddy test; type: in vivo, Cyperus difformis; details: Flood, 250 g ai/ha; 0 to 100 scale where 0 is no effect and 100 is complete control
Method in brief: as §3

corn = test: Test C postemergence; type: in vivo, Zea mays; details: for Plant response rating, Corn / Corn plant response rating: scale 0 to 100 (0 no effect, 100 complete control)
Method in brief: as §1

[5] = Postemergence, 31 g ai/ha, 13 to 15 days
[6] = 125 g ai/ha, 0 to 100 scale where 0 is no effect and 100 is complete control
[7] = 0 to 100 scale, 0 no effect, 100 complete control, approx. 10 days
[8] = 16 g ai/ha, postemergence, 0 is no effect, 100 is complete control
[9] = 31 g ai/ha, postemergence, visual rating, 13 to 15 days
[10] = 125 g ai/ha, postemergence, visual rating
[11] = Postemergence, 62 g ai/ha, 13 to 15 days
[12] = 0 to 100 scale where 0 is no effect and 100 is complete control

Structure (SMILES): N#Cc1cccc(Oc2ncc(Cl)cn2)c1-n1cc(Cl)cn1 [Compound 72]
- Plant response rating (0 to 100), Oilseed Rape (oilseed rape; 125 g ai/ha, postemergence): 70
- Plant response rating (0 to 100), Oilseed Rape (oilseed rape; 250 g ai/ha, postemergence): 90
- Plant response rating, Oilseed Rape (oilseed rape; [5]): 55
- Plant response rating, Oilseed Rape (oilseed rape; Postemergence, 62 g ai/ha): 70
- Plant response rating, Pigweed (pigweed [1]; [6]): 100
- Pigweed plant response rating (pigweed [1]; [7]): 100
- Plant response rating, Morningglory (morningglory; 125 g ai/ha): 90
- Plant response rating, Morningglory (morningglory; 500 g ai/ha): 100
- Plant response rating, Pigweed (pigweed [2]; 125 g ai/ha): 100
- Plant response rating, Pigweed (pigweed [2]; 500 g ai/ha): 100
- Plant response rating, Barnyardgrass (barnyardgrass [3]): 0
- Plant response rating (0 to 100), Johnsongrass (johnsongrass; 125 g ai/ha, postemergence): 5
- Plant response rating (0 to 100), Johnsongrass (johnsongrass; 250 g ai/ha, postemergence): 25
- Plant response rating, Johnsongrass (johnsongrass; [5]): 0
- Plant response rating, Johnsongrass (johnsongrass; Postemergence, 62 g ai/ha): 5
- Plant response rating (0 to 100), Barnyardgrass (barnyardgrass [4]; 125 g ai/ha, postemergence): 10
- Plant response rating (0 to 100), Barnyardgrass (barnyardgrass [4]; 250 g ai/ha, postemergence): 40
- Plant response rating, Barnyardgrass (barnyardgrass [4]; [5]): 5
- Plant response rating, Barnyardgrass (barnyardgrass [4]; Postemergence, 62 g ai/ha): 5
- Plant response rating (0 to 100), Chickweed (chickweed; 125 g ai/ha, postemergence): 80
- Plant response rating (0 to 100), Chickweed (chickweed; 250 g ai/ha, postemergence): 80
- Plant response rating, Chickweed (chickweed; [5]): 50
- Plant response rating, Chickweed (chickweed; Postemergence, 62 g ai/ha): 65
- Plant response rating, Ducksalad (Heteranthera limosa): 75
- Plant response rating (0 to 100), Waterhemp (waterhemp; 125 g ai/ha, postemergence): 75
- Plant response rating (0 to 100), Waterhemp (waterhemp; 250 g ai/ha, postemergence): 95
- Plant response rating, Waterhemp (waterhemp; [5]): 75
- Plant response rating, Waterhemp (waterhemp; Postemergence, 62 g ai/ha): 75
- Plant response rating, Velvetleaf (velvetleaf; [6]): 90
- Velvetleaf plant response rating (velvetleaf; [7]): 100
- Plant response rating (0 to 100), Wheat (wheat, winter; 125 g ai/ha, postemergence): 0
- Plant response rating (0 to 100), Wheat (wheat, winter; 250 g ai/ha, postemergence): 5
- Plant response rating, Wheat (wheat, winter; [5]): 0
- Plant response rating, Wheat (wheat, winter; Postemergence, 62 g ai/ha): 0
- Plant response rating (0 to 100), Crabgrass, Large (large (Lg) crabgrass; 125 g ai/ha, postemergence): 55
- Plant response rating (0 to 100), Crabgrass, Large (large (Lg) crabgrass; 250 g ai/ha, postemergence): 60
- Plant response rating, Crabgrass, Large (large (Lg) crabgrass; [5]): 5
- Plant response rating, Crabgrass, Large (large (Lg) crabgrass; Postemergence, 62 g ai/ha): 10
- Plant response rating, Sedge, Umbrella (sedge, umbrella): 85
- Plant response rating (0 to 100), Corn (corn; 125 g ai/ha, postemergence): 15
- Plant response rating (0 to 100), Corn (corn; 250 g ai/ha, postemergence): 20
- Plant response rating, Corn (corn; [5]): 5
- Plant response rating, Corn (corn; Postemergence, 62 g ai/ha): 10

Structure (SMILES): Clc1cnc(Oc2cccc(Br)c2-n2cc(Cl)cn2)nc1 [Compound 221]
- Plant response rating (0 to 100), Oilseed Rape (oilseed rape; [8]): 40
- Oilseed Rape plant response rating (oilseed rape; [9]): 50
- Plant response rating, Oilseed Rape (oilseed rape; [10]): 80
- Plant response rating, Oilseed Rape (oilseed rape; [11]): 60
- Pigweed plant response rating (0 to 100 scale) (pigweed [1]; 125 g ai/ha): 100
- Pigweed plant response rating (pigweed [1]; [12]): 100
- Morningglory plant response rating (morningglory; 125 g ai/ha): 90
- Plant response rating, Morningglory (morningglory; 500 g ai/ha): 100
- Pigweed plant response rating (pigweed [2]; 125 g ai/ha): 100
- Plant response rating, Pigweed (pigweed [2]; 500 g ai/ha): 100
- Plant response rating, Barnyardgrass (barnyardgrass [3]): 0
- Plant response rating (0 to 100), Johnsongrass (johnsongrass; [8]): 5
- Johnsongrass plant response rating (johnsongrass; [9]): 5
- Plant response rating, Johnsongrass (johnsongrass; [10]): 20
- Plant response rating, Johnsongrass (johnsongrass; [11]): 5
- Plant response rating (0 to 100), Barnyardgrass (barnyardgrass [4]; [8]): 5
- Barnyardgrass plant response rating (barnyardgrass [4]; [9]): 5
- Plant response rating, Barnyardgrass (barnyardgrass [4]; [10]): 10
- Plant response rating, Barnyardgrass (barnyardgrass [4]; Postemergence, 62 g ai/ha): 5
- Plant response rating (0 to 100), Chickweed (chickweed; [8]): 20
- Chickweed plant response rating (chickweed; [9]): 60
- Plant response rating, Chickweed (chickweed; [10]): 50
- Plant response rating, Chickweed (chickweed; [11]): 60
- Plant response rating, Ducksalad (Heteranthera limosa): 0
- Plant response rating (0 to 100), Waterhemp (waterhemp; [8]): 65
- Waterhemp plant response rating (waterhemp; [9]): 70
- Plant response rating, Waterhemp (waterhemp; [10]): 80
- Plant response rating, Waterhemp (waterhemp; [11]): 80
- Velvetleaf plant response rating (0 to 100 scale) (velvetleaf; 125 g ai/ha): 10
- Velvetleaf plant response rating (velvetleaf; [12]): 70
- Plant response rating (0 to 100), Wheat (wheat, winter; [8]): 0
- Wheat plant response rating (wheat, winter; [9]): 0
- Plant response rating, Wheat (wheat, winter; [10]): 0
- Plant response rating, Wheat (wheat, winter; [11]): 0
- Plant response rating (0 to 100), Crabgrass, Large (large (Lg) crabgrass; [8]): 5
- Crabgrass, Large plant response rating (large (Lg) crabgrass; [9]): 5
- Plant response rating, Crabgrass, Large (large (Lg) crabgrass; [10]): 25
- Plant response rating, Crabgrass, Large (large (Lg) crabgrass; [11]): 5
- Plant response rating, Sedge, Umbrella (sedge, umbrella): 0
- Plant response rating (0 to 100), Corn (corn; [8]): 0
- Corn plant response rating (corn; [9]): 5
- Plant response rating, Corn (corn; [10]): 10
- Plant response rating, Corn (corn; [11]): 10

Structure (SMILES): FC(F)c1cnn(-c2c(Br)cccc2Oc2ncc(Cl)cn2)c1 [Compound 232]
- Plant response rating (0 to 100), Oilseed Rape (oilseed rape; [8]): 5
- Oilseed Rape plant response rating (oilseed rape; [9]): 50
- Plant response rating, Oilseed Rape (oilseed rape; [10]): 60
- Plant response rating, Oilseed Rape (oilseed rape; [11]): 5
- Pigweed plant response rating (0 to 100 scale) (pigweed [1]; 125 g ai/ha): 100
- Pigweed plant response rating (pigweed [1]; [12]): 100
- Morningglory plant response rating (morningglory; 125 g ai/ha): 80
- Plant response rating, Morningglory (morningglory; 500 g ai/ha): 90
- Pigweed plant response rating (pigweed [2]; 125 g ai/ha): 100
- Plant response rating, Pigweed (pigweed [2]; 500 g ai/ha): 100
- Plant response rating, Barnyardgrass (barnyardgrass [3]): 10
- Plant response rating (0 to 100), Johnsongrass (johnsongrass; [8]): 0
- Johnsongrass plant response rating (johnsongrass; [9]): 0
- Plant response rating, Johnsongrass (johnsongrass; [10]): 5
- Plant response rating, Johnsongrass (johnsongrass; [11]): 5
- Plant response rating (0 to 100), Barnyardgrass (barnyardgrass [4]; [8]): 10
- Barnyardgrass plant response rating (barnyardgrass [4]; [9]): 5
- Plant response rating, Barnyardgrass (barnyardgrass [4]; [10]): 20
- Plant response rating, Barnyardgrass (barnyardgrass [4]; Postemergence, 62 g ai/ha): 10
- Plant response rating (0 to 100), Chickweed (chickweed; [8]): 5
- Chickweed plant response rating (chickweed; [9]): 30
- Plant response rating, Chickweed (chickweed; [10]): 60
- Plant response rating, Chickweed (chickweed; [11]): 50
- Plant response rating, Ducksalad (Heteranthera limosa): 95
- Plant response rating (0 to 100), Waterhemp (waterhemp; [8]): 65
- Waterhemp plant response rating (waterhemp; [9]): 65
- Plant response rating, Waterhemp (waterhemp; [10]): 85
- Plant response rating, Waterhemp (waterhemp; [11]): 70
- Velvetleaf plant response rating (0 to 100 scale) (velvetleaf; 125 g ai/ha): 20
- Velvetleaf plant response rating (velvetleaf; [12]): 100
- Plant response rating (0 to 100), Wheat (wheat, winter; [8]): 0
- Wheat plant response rating (wheat, winter; [9]): 0
- Plant response rating, Wheat (wheat, winter; [10]): 5
- Plant response rating, Wheat (wheat, winter; [11]): 0
- Plant response rating (0 to 100), Crabgrass, Large (large (Lg) crabgrass; [8]): 5
- Crabgrass, Large plant response rating (large (Lg) crabgrass; [9]): 5
- Plant response rating, Crabgrass, Large (large (Lg) crabgrass; [10]): 5
- Plant response rating, Crabgrass, Large (large (Lg) crabgrass; [11]): 5
- Plant response rating, Sedge, Umbrella (sedge, umbrella): 80
- Plant response rating (0 to 100), Corn (corn; [8]): 5
- Corn plant response rating (corn; [9]): 10
- Plant response rating, Corn (corn; [10]): 15
- Plant response rating, Corn (corn; [11]): 10
